Compound in one assay: COc1cc2nccc(Oc3ccc(NC(=O)NC4CC4)c(Cl)c3)c2cc1C(N)=O [LENVATINIB]
The experiment in a line: surviving fraction relative to DMSO-only wells; higher = less growth inhibition. Conditions: exposure time: 5 days. In outline:
(§1)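 A line counted only if its three screens reached replicate Pearson r >0.7 and median Z' >0.3. Tumour cells in log phase were seeded at 250–500 per well in 384-well plates and, after 24 hours, kept in continuous contact with inhibitors at 0.5, 1, 5, 10, 50, 100, 500 and 1000 nM for five days. Surviving fraction was taken from CellTiter-Glo luminescence relative to the median of DMSO-only wells.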

Compound in a further assay: Cn1c(=O)n(-c2ccc(C(C)(C)C#N)cc2)c2c3cc(-c4cnc5ccccc5c4)ccc3ncc21 [BEZ-235]
Described as above. The settings on record: exposure time: 5 days. In outline: as §1

± gives the standard deviation of the averaged measurements.

With VP229 BREAST, the surviving fraction came out at 1.29 ± 0.23 with LENVATINIB (0.5 nM); 1.14 ± 0.17 in the assay with LENVATINIB (1 nM); 1.21 ± 0.093 with LENVATINIB (5 nM); 0.969 ± 0.044 with LENVATINIB (10 nM); 1.36 ± 0.17 in the assay with LENVATINIB (50 nM); 1.34 ± 0.14 with LENVATINIB (100 nM). Further, the surviving fraction with LENVATINIB (500 nM) came out at 1.47 ± 0.13; with LENVATINIB (1000 nM), 1.42 ± 0.081; with BEZ-235 (0.5 nM) it was 1.36 ± 0.32; with BEZ-235 (1 nM), 1.22 ± 0.075; with BEZ-235 (5 nM) it was 1.25 ± 0.089; with BEZ-235 (10 nM) it was 1.04 ± 0.035. Besides, the surviving fraction in the assay with BEZ-235 (50 nM) is 0.969 ± 0.094; with BEZ-235 (100 nM), 0.751 ± 0.025; in the assay with BEZ-235 (500 nM), 0.268 ± 0.008; with BEZ-235 (1000 nM), 0.159 ± 0.008.

With NY BONE, the surviving fraction with LENVATINIB (0.5 nM) amounted to 1.01 ± 0.073; in the assay with LENVATINIB (1 nM), 1.04 ± 0.048; with LENVATINIB (5 nM), 1.05 ± 0.048; with LENVATINIB (10 nM) it was 1.02 ± 0.065; in the assay with LENVATINIB (50 nM), 1.04 ± 0.045; with LENVATINIB (100 nM) it was 1.05 ± 0.018. Besides, the surviving fraction with LENVATINIB (500 nM) came to 0.869 ± 0.023; in the assay with LENVATINIB (1000 nM), 0.674 ± 0.007; with BEZ-235 (0.5 nM), 0.996 ± 0.023; in the assay with BEZ-235 (1 nM), 0.987 ± 0.018; with BEZ-235 (5 nM), 1.02 ± 0.048; in the assay with BEZ-235 (10 nM) it was 1.01 ± 0.044. Besides, the surviving fraction with BEZ-235 (50 nM) turned out to be 0.825 ± 0.04; with BEZ-235 (100 nM), 0.769 ± 0.003; with BEZ-235 (500 nM) it was 0.486 ± 0.022; in the assay with BEZ-235 (1000 nM) it was 0.464 ± 0.036.

As to RDES SOFT TISSUE, the surviving fraction stood at 1.33 ± 0.018 in the assay with LENVATINIB (0.5 nM); 1.38 ± 0.032 with LENVATINIB (1 nM); 1.15 ± 0.067 in the assay with LENVATINIB (5 nM); 1.23 ± 0.083 with LENVATINIB (10 nM); 1.28 ± 0.18 with LENVATINIB (50 nM); 1.09 ± 0.14 with LENVATINIB (100 nM). Also, the surviving fraction in the assay with LENVATINIB (500 nM) stood at 1.09 ± 0.18; with LENVATINIB (1000 nM) it was 0.964 ± 0.25; in the assay with BEZ-235 (0.5 nM), 1.26 ± 0.072; in the assay with BEZ-235 (1 nM), 1.18 ± 0.21; with BEZ-235 (5 nM), 1.17 ± 0.094; in the assay with BEZ-235 (10 nM), 1.24 ± 0.14. The surviving fraction in the assay with BEZ-235 (50 nM) was 1.48 ± 0.18; in the assay with BEZ-235 (100 nM), 1.14 ± 0.29; in the assay with BEZ-235 (500 nM) it was 0.453 ± 0.089; with BEZ-235 (1000 nM), 0.2 ± 0.03.

As for OSHN BONE, the surviving fraction in the assay with LENVATINIB (0.5 nM) amounted to 1.11 ± 0.034; with LENVATINIB (1 nM) it was 1.11 ± 0.044; with LENVATINIB (5 nM), 1.11 ± 0.033; with LENVATINIB (10 nM) it was 1.11 ± 0.052; in the assay with LENVATINIB (50 nM) it was 1.1 ± 0.02; in the assay with LENVATINIB (100 nM), 1.1 ± 0.035. Also, the surviving fraction with LENVATINIB (500 nM) was 1.1 ± 0.027; with LENVATINIB (1000 nM) it was 1.07 ± 0.011; with BEZ-235 (0.5 nM), 1.07 ± 0.033; in the assay with BEZ-235 (1 nM), 1.09 ± 0.044; in the assay with BEZ-235 (5 nM), 1.06 ± 0.029; with BEZ-235 (10 nM), 1.08 ± 0.03. For the same test system, the surviving fraction with BEZ-235 (50 nM) was 1.12 ± 0.013; with BEZ-235 (100 nM), 1.12 ± 0.026; with BEZ-235 (500 nM), 0.828 ± 0.02; with BEZ-235 (1000 nM), 0.623 ± 0.0072.

Regarding CAL120 BREAST, the surviving fraction with LENVATINIB (0.5 nM) was determined as 0.968 ± 0.014; with LENVATINIB (1 nM), 0.984 ± 0.028; in the assay with LENVATINIB (5 nM), 1.01 ± 0.023; with LENVATINIB (10 nM), 1.01 ± 0.024; in the assay with LENVATINIB (50 nM), 0.9848 ± 0.0086; with LENVATINIB (100 nM) it was 0.984 ± 0.028. Besides, the surviving fraction amounted to 0.866 ± 0.024 with LENVATINIB (500 nM); 0.753 ± 0.049 with LENVATINIB (1000 nM); 0.962 ± 0.022 in the assay with BEZ-235 (0.5 nM); 0.9768 ± 0.0038 with BEZ-235 (1 nM); 0.98 ± 0.011 in the assay with BEZ-235 (5 nM); 0.911 ± 0.017 in the assay with BEZ-235 (10 nM). Also, the surviving fraction with BEZ-235 (50 nM) is 0.502 ± 0.029; in the assay with BEZ-235 (100 nM), 0.296 ± 0.0058; with BEZ-235 (500 nM) it was 0.102 ± 0.0053; with BEZ-235 (1000 nM), 0.0963 ± 0.0037.
